Series [1] concerns BHK21 cells infected with bovine epidemic fever virus. The following applies: 24 hours after virus infection, hydrogen group vs hydrogen-free group.
Method: (§1) By adding H2O2 at concentrations of 0 μM, 4 μM, 10 μM, and 20 μM, the BHK-21 cells (1×10^5/test) in the experimental group and in the control group were induced to undergo oxidation reaction. H2DCFDA was modified by cellular esterases to form a non-fluorescent H2DCF after adding H2DCFDA cell-permeant fluorescence probe.
(§2) 0.01 MOI bovine epidemic fever virus liquid (virus strain Tn88128 , References: Hsieh, Y -C.; Wang, S. -Y; Lee, Y -F.; Chen, S. -H.; Mak, P. O. T.; Chu, C. -Y. DNA sequence analysis of glycoprotein G gene of bovine ephemeral fever virus and development of a double oil emulsion vaccine against bovine ephemeral fever. J. Vet. Med. Sci. 2006, 68, 543-548) was used for infecting two groups of cells and the virus was cultured until the eighth day (day 8), the voltage was 3-5V, and the current was 0.5 A. The cell number, hydrogen concentration, viral titer and cell senescence molecular marker Cdkn2a (p16) were measured daily.
Two groups of cells infected with virus on part of the carrier sheets in the bioreactor were collected after 24 hours, and H2O2 with concentrations of 0 μM, 4 μM, 10 μM, and 20 μM was added to induce intracellular oxidation reaction, and the ROS fold changes were evaluated by the method of 2.3 in Example 2.
The next series relates to Cdkn2a (p16). Particulars: after hydrogen supply, on the third day; experimental vs control group.
For another series, the system named is BHK-21 cells. Particulars: H2O2 0, 4, 10, 20 μM; days 4, 5 and 6; hydrogen group vs hydrogen-free group.
The subject of series [2] is hamster kidney cells (BHK21). The following applies: bioreactor with hydrogen vs without hydrogen, hydrogen supplied from day 2, culture to day 8.
Method: The hamster kidney cells were incubated at 37° C. in an incubator with 5.0% CO2 using MEM culture medium (Invitrogen, Gibco Co. Ltd., New York, USA, with 10% FBS). The hamster kidney cells were incubated in a cell culture flask (175T Flask) for 3 days, and then placed in a roller bottle for expanded culture for 3 days. At the beginning of the experiment, the cells were first transferred to a tidal bioreactor (Bellocell, Taiwan) with a working volume of 500 ml of culture medium for 2 days to adapt to the environment in which the hamster kidney cells could grow to a saturated number of about 3×10^9/bottle. The electrolysis-based hydrogen generator was started on day 2 for antioxidant cell culture to regulate cellular oxidative stress.
The cells were divided into two groups to analyze the antioxidant effect. […] Cell number, hydrogen concentrations, and reactive oxygen species (ROS) tolerance responses were measured daily.
The biological carriers in the bioreactors of the experimental group and the control group were collected daily, 1 ml of Crystal Violet Dye (CVD) cell counting dye was added, and the number of cells was counted and recorded using an inverted microscope.
Series [3] concerns bovine epidemic fever virus (strain Tn88128). The following applies: 24 hours after virus infection (the 4th day), 0.01 MOI.
Method: as §2
After the virus infection, the virus tier in the virus liquid was measured by the TCID50 detection method after collecting the virus liquid in the bioreactors of the experimental group and the control group every day. The virus liquid was serially diluted 10-fold with MEM to 1/10^10th of original concentration, and then inoculated into a 96-well cell culture plate at 100 μl/well (100 μl of cell fluid was already added to each well, containing 2×10^4 BHK21 cells), the BHK21 cells were cultured in a 5% CO2 incubator at 37° C. for 3 days. After cytopathic effect (CPE) was observed and recorded, TCID50 was calculated using the Reed-Muench method.
Series [4] has as its system BHK21 cells infected with bovine epidemic fever virus. Particulars: 24 hours after virus infection; experimental group vs control group.
Method: (§3) On the second day, the antioxidant auxiliary equipment was started, and hydrogen gas was supplied at the frequency of turning on the current for 15 minutes per hour. On the third day, the frequency of the current was adjusted to the frequency of turning on the current for 15 minutes and turning off the current for 15 minutes. 0.01 MOI bovine epidemic fever virus liquid (virus strain Tn88128 , References: Hsieh, Y -C.; Wang, S. -Y; Lee, Y -F.; Chen, S. -H.; Mak, P. O. T.; Chu, C. -Y. DNA sequence analysis of glycoprotein G gene of bovine ephemeral fever virus and development of a double oil emulsion vaccine against bovine ephemeral fever. J. Vet. Med. Sci. 2006, 68, 543-548) was used for infecting two groups of cells and the virus was cultured until the eighth day (day 8), the voltage was 3-5V, and the current was 0.5 A. The cell number, hydrogen concentration, viral titer and cell senescence molecular marker Cdkn2a (p16) were measured daily.
After virus infection, the cells on the carrier sheet in the bioreactors of the experimental group and the control group were collected every day, 1 ml of CVD was added, and the number of cells was calculated on that day. The formula for calculating the cell death rate is [(total number of cells on the previous day)−(total number of cells on that day)]/(total number of cells on the previous day)*100%.

Structures are written as SMILES. Read-outs that look alike come from different tables or passages of the source.

Method for BHK-21 cells: The cells were divided into two groups to analyze the antioxidant effect. […] Following Example 1, when the antioxidant auxiliary equipment was turned on the second day (day 2), hydrogen gas was supplied at the frequency of turning on the current for 15 minutes per hour, the voltage was 3-5V, the constant current was 0.5 A, and the theoretical hydrogen production was about 466×10^−5 moles per hour. On the third day, the frequency was adjusted to turn on for 15 minutes and turn off for 15 minutes to continuously supply hydrogen gas until the end of the experiment. The voltage was 3˜5V, the constant current was 0.5 A, and the theoretical hydrogen production was about 933×10^−5 moles per hour. The culture medium was replaced on the third day, and the cells were cultured until the eighth day. Cell number, hydrogen concentrations, and reactive oxygen species (ROS) tolerance responses were measured daily.
as §1
Method for Cdkn2a (p16): as §3
The expression level of the cellular senescence molecule Cdkn2a (p16) is an indicator of senescent cells. […]

`[HH]` [molecular hydrogen]: the ROS fold change result in series [1] (H2O2 10 μM) is listed as “significantly reduced the ROS fold change”; in series [1] (H2O2 20 μM), “significantly reduced the ROS fold change”; with BHK-21 cells it was “significantly demonstrated reduced ROS fold change”. In the series with Cdkn2a (p16), the “fold change of gene expression of senescence molecule Cdkn2a (p16)” value is reported as “decreased significantly”. Besides, the “cell growth pattern / damage to cells” value in series [2] is listed as “will not cause damage to cells”. The “virus yield relative to hydrogen-free group” value in series [3] amounted to 16 times. In series [4], the “cell consumption rate (cell death rate)” value is “greater than that of the control group”.

The record behind these values is patent US20240026554A1, “ANTIOXIDANT CULTURE METHOD AND ANTIOXIDANT AUXILIARY EQUIPMENT” (National Pingtung University of Science and Technology, priority 2022, published 2024).
